The results in this text go back to ChEMBL document CHEMBL1128386, “Structure-activity relationships of milrinone analogues determined in vitro in a rabbit heart membrane Ca(2+)-ATPase model” (J Med Chem, 1995).

SMILES strings stand for the structures.

This assay is filed under the species Oryctolagus cuniculus. Briefly: Activity against [Ca2+]-ATPase assay in rabbit myocardial membrane. To be noted: Myocardium. In kind it is cell membranes.
Compound `Cc1cnccc1-c1cnc(O)c(N)c1` came in with an Activity of 0.03 µM.
The figure for `Cc1cnccc1-c1cnc(O)c(C#N)c1` is 0.5 µM; for `Nc1cc(-c2ccncc2)c[nH]c1=O` it is 1.4 µM.
`Cc1nc(O)c(N)cc1-c1ccncc1` returned an Activity of 6 µM.
For the compound `Cc1nc(O)c(Br)cc1-c1ccncc1`, the Activity was found to be 6.6 µM.
The figure for `Cc1[nH]c(=O)c(C#N)cc1-c1ccncc1` is 10.7 µM.
Regarding `Cc1cnccc1-c1cc(C#N)c(O)nc1C`, the Activity was determined as 3.3 µM.
